Data as given in patent US8802597B2, “Herbicidal pyrimidines” (E I du Pont de Nemours and Company, priority 2003, dated 2014).
Where two headings read alike, the source gives them in different places.

Columns and labels:
Format in all cases: in vivo
[1] = system: pigweed (Amaranthus retroflexus); experiment: Test B pre/postemergence; details: Amaranthus retroflexus; for pest or weed control at 125 g/ha: 125 g ai/ha; for pest or weed control at 500 g/ha: 500 g ai/ha
Procedure, shortened: (§1)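 Following sowing, compounds in a surfactant-bearing non-phytotoxic solvent were applied preemergence; emerged plants 2 to 18 cm high got postemergence treatment concurrently. Evaluation: 13 to 15 days later, greenhouse, 0–100 visual scale.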

[2] = system: giant foxtail (Setaria faberii); experiment: Test B pre/postemergence; details: Setaria faberi; for pest or weed control at 125 g/ha: 125 g ai/ha; for pest or weed control at 500 g/ha: 500 g ai/ha
Procedure, shortened: as §1

[3] = system: Surinam grass (Brachiaria decumbens); experiment: Test B pre/postemergence; details: Urochloa decumbens; for pest or weed control at 125 g/ha: 125 g ai/ha; for pest or weed control at 500 g/ha: 500 g ai/ha
Procedure, shortened: as §1

[4] = system: lambsquarters (Chenopodium album); experiment: Test B pre/postemergence; details: Chenopodium album; for pest or weed control at 125 g/ha: 125 g ai/ha; for pest or weed control at 500 g/ha: 500 g ai/ha
Procedure, shortened: as §1

[5] = system: crabgrass (Digitaria sanguinalis); experiment: Test B pre/postemergence; details: Digitaria sanguinalis; for pest or weed control at 125 g/ha: 125 g ai/ha; for pest or weed control at 500 g/ha: 500 g ai/ha
Procedure, shortened: as §1

[6] = system: wheat (Triticum aestivum); experiment: Test B pre/postemergence; details: Triticum aestivum; for plant injury at 125 g/ha: 125 g ai/ha; for plant injury at 500 g/ha: 500 g ai/ha
Procedure, shortened: as §1

[7] = system: barnyardgrass (Echinochloa crus-galli); experiment: Test B pre/postemergence; details: Echinochloa crus-galli; for pest or weed control at 125 g/ha: 125 g ai/ha; for pest or weed control at 500 g/ha: 500 g ai/ha
Procedure, shortened: as §1

[8] = system: velvetleaf (Abutilon theophrasti); experiment: Test B pre/postemergence; details: Abutilon theophrasti; for pest or weed control at 125 g/ha: 125 g ai/ha; for pest or weed control at 500 g/ha: 500 g ai/ha
Procedure, shortened: as §1

[9] = system: morningglory (Ipomoea coccinea); experiment: Test B pre/postemergence; details: Ipomoea; for pest or weed control at 125 g/ha: 125 g ai/ha; for pest or weed control at 500 g/ha: 500 g ai/ha
Procedure, shortened: as §1

corn (Zea mays) = experiment: Test B pre/postemergence; details: Zea mays
Procedure, shortened: as §1

[10] = system: cocklebur (Xanthium strumarium); experiment: Test B pre/postemergence; details: Xanthium strumarium; for pest or weed control at 125 g/ha: 125 g ai/ha; for pest or weed control at 500 g/ha: 500 g ai/ha
Procedure, shortened: as §1

rice (Oryza sativa) = experiment: Test B flooded paddy test; details: Oryza sativa, Flood, 1000 g ai/ha; scale 0 to 100; read-out: Plant response rating, Rice
Procedure, shortened: (§2)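 Visual injury scoring (0 = no effect, 100 = complete control) versus controls made 13 to 15 days after treatment in the greenhouse. Test species were grown in flooded paddy to the 2-leaf stage: rice, barnyardgrass, umbrella sedge, duck salad.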

[11] = system: umbrella sedge (Cyperus difformis); experiment: Test B flooded paddy test; details: Cyperus difformis, Flood, 1000 g ai/ha; scale 0 to 100; read-out: Plant response rating, Sedge, Umbrella
Procedure, shortened: as §2

[12] = system: duck salad (Heteranthera limosa); experiment: Test B flooded paddy test; details: Heteranthera limosa, Flood, 1000 g ai/ha; scale 0 to 100; read-out: Plant response rating, Ducksalad
Procedure, shortened: as §2

[13] = system: barnyardgrass (Echinochloa crus-galli); experiment: Test B flooded paddy test; details: Echinochloa crus-galli, Flood, 1000 g ai/ha; scale 0 (no effect) to 100 (complete control); read-out: Plant response rating, Barnyardgrass
Procedure, shortened: as §2

[14] = system: blackgrass (Alopecurus myosuroides); experiment: Test B postemergence; details: Alopecurus myosuroides, post-emergence
Procedure, shortened: as §1

wild oat (Avena fatua) = experiment: Test B postemergence; details: Avena fatua, post-emergence
Procedure, shortened: as §1

[15] = pre-emergence, Preemergence, scale 0 to 100 (0 no effect, 100 complete control), read-out: Plant response rating, Wheat

With CCOC(=O)c1nc(C2CC2)nc(NN)c1Br [Compound 42] the pest or weed control at 125 g/ha ([1]; post-emergence, Postemergence, scale 0 to 100 (0 no effect, 100 complete control), read-out: Pigweed plant response rating) was 80%, the pest or weed control at 500 g/ha ([1]; post-emergence, Postemergence, scale 0 to 100, read-out: Plant response rating, Pigweed) was 90% and the pest or weed control at 125 g/ha ([1]; pre-emergence, Preemergence, scale 0 to 100 (0 no effect, 100 complete control), read-out: Plant response rating, Pigweed) was 50%. For the same compound, the pest or weed control at 500 g/ha ([1]; pre-emergence, Preemergence, scale 0 to 100 (0 no effect, 100 complete control), read-out: Pigweed plant response rating) was 90%, the pest or weed control at 125 g/ha ([2]; post-emergence, Postemergence, scale 0 to 100 (0 no effect, 100 complete control), read-out: Foxtail, Giant plant response rating) was 0% and the pest or weed control at 500 g/ha ([2]; post-emergence, Postemergence, scale 0 to 100, read-out: Plant response rating, Foxtail, Giant) was 0%. It also gave a pest or weed control at 125 g/ha ([2]; pre-emergence, Preemergence, scale 0 to 100 (0 no effect, 100 complete control), read-out: Plant response rating, Foxtail, Giant) of 0%, a pest or weed control at 500 g/ha ([2]; pre-emergence, Preemergence, scale 0 to 100 (0 no effect, 100 complete control), read-out: Foxtail, Giant plant response rating) of 0% and a pest or weed control at 125 g/ha ([3]; post-emergence, Postemergence, scale 0 to 100 (0 no effect, 100 complete control), read-out: Surinam Grass plant response rating) of 0%. It also gave a pest or weed control at 500 g/ha ([3]; post-emergence, Postemergence, scale 0 to 100, read-out: Plant response rating, Surinam Grass) of 10%, a pest or weed control at 125 g/ha ([3]; pre-emergence, Preemergence, scale 0 to 100 (0 no effect, 100 complete control), read-out: Plant response rating, Surinam Grass) of 0% and a pest or weed control at 500 g/ha ([3]; pre-emergence, Preemergence, scale 0 to 100 (0 no effect, 100 complete control), read-out: Surinam Grass plant response rating) of 20%. For the same compound, the pest or weed control at 125 g/ha ([4]; post-emergence, Postemergence, scale 0 to 100 (0 no effect, 100 complete control), read-out: Lambsquarters plant response rating) was 80%, the pest or weed control at 500 g/ha ([4]; post-emergence, Postemergence, scale 0 to 100, read-out: Plant response rating, Lambsquarters) was 90% and the pest or weed control at 125 g/ha ([4]; pre-emergence, Preemergence, scale 0 to 100 (0 no effect, 100 complete control), read-out: Plant response rating, Lambsquarters) was 40%. It also gave a pest or weed control at 500 g/ha ([4]; pre-emergence, Preemergence, scale 0 to 100 (0 no effect, 100 complete control), read-out: Lambsquarters plant response rating) of 90%, a pest or weed control at 125 g/ha ([5]; post-emergence, Postemergence, scale 0 to 100 (0 no effect, 100 complete control), read-out: Crabgrass plant response rating) of 0% and a pest or weed control at 500 g/ha ([5]; post-emergence, Postemergence, scale 0 to 100, read-out: Plant response rating, Crabgrass) of 30%. It also gave a pest or weed control at 125 g/ha ([5]; pre-emergence, Preemergence, scale 0 to 100 (0 no effect, 100 complete control), read-out: Plant response rating, Crabgrass) of 0%, a pest or weed control at 500 g/ha ([5]; pre-emergence, Preemergence, scale 0 to 100 (0 no effect, 100 complete control), read-out: Crabgrass plant response rating) of 20% and a plant injury at 125 g/ha ([6]; post-emergence, Postemergence, scale 0 to 100 (0 no effect, 100 complete control), read-out: Wheat plant response rating) of 50%. The plant injury at 500 g/ha ([6]; post-emergence, Postemergence, scale 0 to 100, read-out: Plant response rating, Wheat) was 50%, the plant injury at 125 g/ha [6, 15] was 10% and the plant injury at 500 g/ha [6, 15] was 10%. For the same compound, the pest or weed control at 125 g/ha ([7]; post-emergence, Postemergence, scale 0 to 100 (0 no effect, 100 complete control), read-out: Barnyardgrass plant response rating) was 10%, the pest or weed control at 500 g/ha ([7]; post-emergence, Postemergence, scale 0 to 100, read-out: Plant response rating, Barnyardgrass) was 30% and the pest or weed control at 125 g/ha ([7]; pre-emergence, Preemergence, scale 0 to 100 (0 no effect, 100 complete control), read-out: Plant response rating, Barnyardgrass) was 0%. It also gave a pest or weed control at 500 g/ha ([7]; pre-emergence, Preemergence, scale 0 to 100 (0 no effect, 100 complete control), read-out: Barnyardgrass plant response rating) of 0%, a pest or weed control at 125 g/ha ([8]; post-emergence, Postemergence, scale 0 to 100 (0 no effect, 100 complete control), read-out: Velvetleaf plant response rating) of 50% and a pest or weed control at 500 g/ha ([8]; post-emergence, Postemergence, scale 0 to 100, read-out: Plant response rating, Velvetleaf) of 80%. The pest or weed control at 125 g/ha ([8]; pre-emergence, Preemergence, scale 0 to 100 (0 no effect, 100 complete control), read-out: Plant response rating, Velvetleaf) was 10%, the pest or weed control at 500 g/ha ([8]; pre-emergence, Preemergence, scale 0 to 100 (0 no effect, 100 complete control), read-out: Velvetleaf plant response rating) was 70% and the pest or weed control at 125 g/ha ([9]; post-emergence, Postemergence, scale 0 to 100 (0 no effect, 100 complete control), read-out: Morningglory plant response rating) was 80%. It also gave a pest or weed control at 500 g/ha ([9]; post-emergence, Postemergence, scale 0 to 100, read-out: Plant response rating, Morningglory) of 90%, a pest or weed control at 125 g/ha ([9]; pre-emergence, Preemergence, scale 0 to 100 (0 no effect, 100 complete control), read-out: Plant response rating, Morningglory) of 20% and a pest or weed control at 500 g/ha ([9]; pre-emergence, Preemergence, scale 0 to 100 (0 no effect, 100 complete control), read-out: Morningglory plant response rating) of 80%. For the same compound, the plant injury at 125 g/ha (corn (Zea mays); post-emergence, Postemergence, 125 g ai/ha, scale 0 to 100 (0 no effect, 100 complete control), read-out: Corn plant response rating) was 0%, the Corn plant response rating (crop injury, 0 = no effect, 100 = complete kill) at 500 g/ha (corn (Zea mays); post-emergence, Postemergence, 500 g ai/ha, scale 0 to 100) was 0% and the Corn plant response rating (crop injury, 0 = no effect, 100 = complete kill) at 125 g/ha (corn (Zea mays); pre-emergence, Preemergence, 125 g ai/ha, scale 0 to 100 (0 no effect, 100 complete control)) was 0%. For the same compound, the plant injury at 500 g/ha (corn (Zea mays); pre-emergence, Preemergence, 500 g ai/ha, scale 0 to 100 (0 no effect, 100 complete control), read-out: Corn plant response rating) was 0%, the pest or weed control at 125 g/ha ([10]; post-emergence, Postemergence, scale 0 to 100 (0 no effect, 100 complete control), read-out: Cocklebur plant response rating) was 80% and the pest or weed control at 500 g/ha ([10]; post-emergence, Postemergence, scale 0 to 100, read-out: Plant response rating, Cocklebur) was 90%. It also gave a pest or weed control at 125 g/ha ([10]; pre-emergence, Preemergence, scale 0 to 100 (0 no effect, 100 complete control), read-out: Plant response rating, Cocklebur) of 40%, a pest or weed control at 500 g/ha ([10]; pre-emergence, Preemergence, scale 0 to 100 (0 no effect, 100 complete control), read-out: Cocklebur plant response rating) of 70% and a plant injury at 1000 g/ha (rice (Oryza sativa)) of 0%. For the same compound, the pest or weed control at 1000 g/ha [11] was 0%, the pest or weed control at 1000 g/ha [12] was 0% and the pest or weed control at 1000 g/ha [13] was 0%. The pest or weed control at 125 g/ha ([14]; 125 g ai/ha, scale 0 to 100 (0 no effect, 100 complete control), read-out: Blackgrass plant response rating) was 30%, the pest or weed control at 500 g/ha ([14]; 500 g ai/ha, scale 0 to 100, read-out: Plant response rating, Blackgrass) was 60% and the pest or weed control at 125 g/ha (wild oat (Avena fatua); 125 g ai/ha, scale 0 to 100 (0 no effect, 100 complete control), read-out: Oat, Wild plant response rating) was 0%. For the same compound, the pest or weed control at 500 g/ha (wild oat (Avena fatua); 500 g ai/ha, scale 0 to 100, read-out: Plant response rating, Oat, Wild) was 0%.
